Measured values taken from patent publication US6689803B2, “Compositions and methods for treating surgical adhesions” (Angiotech Pharmaceuticals, Inc., priority 1996, dated 2004).
Where two headings read alike, the source gives them in different places.

Assays:
neutrophils = test: Neutrophil chemiluminescence assay (opsonized CPPD crystals or zymosan); assay type: cell-based, human; settings: Homo sapiens, Neutrophil, 28 μM, read-out: inhibition of the peak chemiluminescence response
Procedure: All experiments that studied neutrophil responses to crystals or zymosan in the presence of paclitaxel were performed using plasma opsonized CPPD or zymosan. Opsonization of crystals or zymosan was done with 50% heparinized plasma at a concentration of 75 mg of CPPD or 12 mg of zymosan per ml of 50% plasma Crystals or zymosan were incubated with plasma for 30 minutes at 37° C. and then washed in excess HBSS.
Neutrophil viability and purity was always greater than 90%.
A stock solution of LY290181 at 100 μM in HBSS was freshly prepared.
All chemiluminescence studies were performed at a cell concentration of 5,000,000 cells/ml in HBSS with CPPD (50 mg/ml). In all experiments 0.5 ml of cells was added to 25 mg of CPPD or 0.5 mg of zymosan in 1.5 ml capped Eppendorf tubes. 10 μl of luminol dissolved in 25% DMSO in HBSS was added to a final concentration of 1 μM and the samples were mixed to initiate neutrophil activation by the crystals or zymosan. Chemiluminescence was monitored using an LKB Luminometer (Model 1250) at 37° C. for 20 minutes with shaking immediately prior to measurements to resuspend the crystals or zymosan. Control tubes contained cells, drug and luminol (crystals absent).

TR1 T-cell clones = test: T cell response to antigenic stimulus (tritiated thymidine incorporation); assay type: cell-based; settings: micellar formulation; GP68-88 or conA; added at start or 24 hours after stimulation; 48 hours
Procedure: Tritiated thymidine incorporation was determined as a measure of T-cell proliferation in response to peptide or conA stimulation.

synoviocytes [1] = test: 3H-thymidine incorporation into synoviocytes; assay type: cell-based; settings: 6 or 24 hours
Procedure: At these times, 1×10^−6 cpm of ^3H-thymidine was added to the cell culture and incubated for 2 hours at 37° C. The cells were placed through a cell harvester, washed through a filter, the filters were cut, and the amount of radiation contained in the filter sections determined. Once the amount of thymidine incorporated into the cells was ascertained, it was used to determine the rate of cell proliferation. This experiment was repeated three times and the data collated.

human keratinocytes = test: Keratinocyte viable cell number (trypan blue exclusion); assay type: cell-based; settings: 4 days
Procedure: Following incubation, cells were collected and counted by the trypan blue exclusion assay.

EOMA cells [2] = test: Endothelial cell proliferation (trypan blue exclusion); assay type: cell-based; settings: 48 hours
Procedure: Following the incubation, the number of viable cells were determined using the trypan blue exclusion assay. […] All cell toxicity assays were performed three times, and each individual measurement was made in triplicate.

EOMA cells [3] = test: Endothelial cell apoptosis (DAPI staining); assay type: cell-based; settings: 24 hours
Procedure: The cells were fixed with 3.7% formaldehyde in phosphate buffered saline for 20 minutes, stained with DAPI (4′-6-diaminido-2-phenylindole), 1 ug/ml, and examined with a 40×objective under epifluorescent optics. Apoptotic cells were evaluated by scoring cells for fragmented nuclei and condensed chromatin.

synoviocytes [4] = test: Proliferation assay (MTT); assay type: cell-based; settings: 24-hour exposure
Procedure: On day one, 5-10×10^4 synoviocytes were plated per well (96-well plate). Column #1 was kept free of cells (blank). On day 2, the plate was flicked to discard the medium and 200 μl of medium containing various concentrations of drug was added. […] There was no drug added to columns #1 and #2 (blank and untreated control, respectively). The medium containing the drug was discarded and 200 μl of fresh complete medium was added. The cells were then left to grow for an additional 3 to 4 days. On day five, 20 μl of dimethylthiazol diphenyltetrazolium bromide salt (MTT) (5 mg/ml PBS) was added and allowed to incubate for 4 hours at 37° C. The medium was decanted and 200 μl of DMSO was added.
The data were expressed as the % of survival which was obtained by dividing the number of cells remaining after treatment by the number of cells in the untreated control column #2 (the number of cells was obtained from a standard done prior to the assay).

[5] = system: AP-1 transcriptional activity; test: IL-1 stimulated AP-1 driven CAT reporter gene in chondrocytes; assay type: cell-based; settings: 10^−7 to 10^−5 M
Text: The data noted with an asterisk (*) have significance compared with IL-1-induced CAT activity according to a t-test, P<0.05. The results shown are representative of three independent experiments.

[6] = system: MDAY-D2 tumors on the CAM; test: Tumor angiogenesis: MDAY-D2 tumors on the CAM; assay type: in vivo, chick; settings: 20% paclitaxel-loaded thermopaste
Procedure: Fertilized domestic chick embryos are incubated for 4 days prior to having their shells removed. The egg contents are emptied by removing the shell located around the airspace, severing the interior shell membrane, perforating the opposite end of the shell and allowing the egg contents to gently slide out from the blunted end. The contents are emptied into round-bottom sterilized glass bowls, covered with petri dish covers and incubated at 90% relative humidity and 3% carbon dioxide.
MDAY-D2 cells (a murine lymphoid tumor) are injected into mice and allowed to grow into tumors weighing 0.5-1.0 g. The mice are sacrificed, the tumor sites wiped with alcohol, excised, placed in sterile tissue culture media, and diced into 1 mm pieces under a laminar flow hood. Prior to placing the dissected tumors onto the […] chick embryos, CAM surfaces are gently scraped with a 30 gauge needle to ensure tumor implantation. The tumors are then placed on the CAMs after 8 days of incubation (4 days after deshelling), and allowed to grow on the CAM for four days to establish a vascular supply. Four embryos are prepared utilizing this method, each embryo receiving 3 tumors. On day 12, each of the 3 tumors on the embyros received either 20% paclitaxel-loaded thermopaste, unloaded thermopaste, or no treatment. The treatments were continued for two days before the results were recorded.
The explanted MDAY-D2 tumors secrete angiogenic factors which induce the ingrowth of capillaries (derived from the CAM) into the tumor mass and allow it to continue to grow in size. Since all the vessels of the tumor are derived from the CAM, while all the tumor cells are derived from the explant, it is possible to assess the effect of therapeutic interventions on these two processes independently. This assay has been used to determine the effectiveness of paclitaxel-loaded thermopaste on: (a) inhibiting the vascularization of the tumor and (b) inhibiting the growth of the tumor cells themselves.

[7] = Paclitaxel solubility in permeation enhancers; assay type: physicochemical; settings: 37° C.
Procedure: The following permeation enhancers were examined: Transcutol®, ethanol, propylene glycol, isopropyl myristate, oleic acid and Transcutol:isopropyl myristate (9:1 v:v). […] A sample of 0.5 ml of the fluid from each vial was centrifuged at 37° C. and 13000 rpm for 2 minutes. Aliquots (0.1 ml) of supernatant from the centrifuge tubes were transferred to volumetric flasks and diluted with methanol. Paclitaxel content was assessed by high pressure liquid chromatography (HPLC).

subcutaneous tumors = test: Subcutaneous tumors in mice treated with paste; assay type: in vivo; settings: paclitaxel/gelatin/PCL paste
synovial fibroblasts = test: Synoviocyte proliferation (trypan blue dye exclusion); settings: 24 hours

In the case of `CC(=O)O[C@H]1C(=O)[C@@]2(C)[C@H]([C@H](OC(=O)c3ccccc3)[C@]3(O)C[C@H](OC(=O)[C@H](O)[C@@H](NC(=O)c4ccccc4)c4ccccc4)C(C)=C1C3(C)C)[C@]1(OC(C)=O)CO[C@@H]1C[C@@H]2O` [paclitaxel], the inhibition at 28 µM (neutrophils; plasma opsonized CPPD) is reported as 52%, the inhibition at 28 µM (neutrophils; plasma opsonized zymosan) is reported as 45% and the “concentration at which T-cell proliferation was (completely) inhibited” value (TR1 T-cell clones) is reported as 0.02 µM. For the same compound, the “inhibits incorporation of 3H-thymidine at concentrations as low as” value (synoviocytes [1]) was 10^−8 M, the cell viability (human keratinocytes; 10^−7 M or higher) was “significant drop in cell viability” and the cell viability (human keratinocytes; 10^−8 M) was 87 % of untreated controls. The cell viability (human keratinocytes; 10^−9 M) was “greater than 100 % of untreated controls”, the “inhibition of endothelial cell proliferation” value (EOMA cells [2]; 10^−7M or greater) was “completely inhibited cell proliferation” and the inhibition at 0.01 µM (EOMA cells [2]; Endothelial cell, 10^−8M) was > 50%. The “concentrations inducing endothelial cell apoptosis” value (EOMA cells [3]) was “greater than 10^−8 M”, the IC50 (synoviocytes [4]) was ~30 nM and the “IL-1 induced AP-1 reporter gene CAT activity” value [5] was “reduced in chondrocytes by paclitaxel in a concentration dependent manner”. For the same compound, the “blood vessels in the immediate periphery of the tumor” value ([6]; two days) was 14, the “small capillaries in the tumor mass” value ([6]; two days) was 3-4 and the tumor vascularity ([6]; all 4 embryos) was “suppressing tumor vascularity”. For the same compound, the “Paclitaxel concentration at saturation, Average” value (shortened to “Paclitaxel concentration”) ([7]; Ethanol) was 68.91 mg/mL, the “Paclitaxel concentration” value ([7]; Isopropyl myristate) was 0.43 mg/mL and the “Paclitaxel concentration” value ([7]; Oleic acid) was 0.31 mg/mL. The “Paclitaxel concentration” value ([7]; Propylene glycol) was 21.56 mg/mL, the “Paclitaxel concentration” value ([7]; Transcutol) was 346.9 mg/mL and the “Paclitaxel concentration” value ([7]; Transcutol, listed as Paclitaxel) was 346.85 mg/mL. The “Paclitaxel concentration” value ([7]; Transcutol:isopropyl myristate (9:1 v:v)) was 353.9 mg/mL, the “Paclitaxel concentration” value ([7]; Transcutol:isopropyl myristate (9:1 v:v), listed as Paclitaxel) was 353.93 mg/mL and the tumor mass (subcutaneous tumors) was “significantly reduced the tumor mass”. The “toxicity to synovial fibroblasts” value (synovial fibroblasts; 10^−6 M and 10^−5 M) was “toxic” and the “inhibiting proliferation of the synoviocytes at concentrations as low as” value (synovial fibroblasts) was 10^−7 M.
